Test results reported in US11339130B1 (Blade Therapeutics, Inc., priority 2016, dated 2022).

What was measured:
Human Calpain 1/NS1 = target: T1, Human Calpain 1/NS1 (Homo sapiens, UniProt P07384); test: Calpain inhibition continuous fluorescence (FRET) assay, Human Calpain 1/NS1; type: biochemical; details: read-out: Human Calpain 1/NS1 IC50
T1 sequence (P07384 1-714): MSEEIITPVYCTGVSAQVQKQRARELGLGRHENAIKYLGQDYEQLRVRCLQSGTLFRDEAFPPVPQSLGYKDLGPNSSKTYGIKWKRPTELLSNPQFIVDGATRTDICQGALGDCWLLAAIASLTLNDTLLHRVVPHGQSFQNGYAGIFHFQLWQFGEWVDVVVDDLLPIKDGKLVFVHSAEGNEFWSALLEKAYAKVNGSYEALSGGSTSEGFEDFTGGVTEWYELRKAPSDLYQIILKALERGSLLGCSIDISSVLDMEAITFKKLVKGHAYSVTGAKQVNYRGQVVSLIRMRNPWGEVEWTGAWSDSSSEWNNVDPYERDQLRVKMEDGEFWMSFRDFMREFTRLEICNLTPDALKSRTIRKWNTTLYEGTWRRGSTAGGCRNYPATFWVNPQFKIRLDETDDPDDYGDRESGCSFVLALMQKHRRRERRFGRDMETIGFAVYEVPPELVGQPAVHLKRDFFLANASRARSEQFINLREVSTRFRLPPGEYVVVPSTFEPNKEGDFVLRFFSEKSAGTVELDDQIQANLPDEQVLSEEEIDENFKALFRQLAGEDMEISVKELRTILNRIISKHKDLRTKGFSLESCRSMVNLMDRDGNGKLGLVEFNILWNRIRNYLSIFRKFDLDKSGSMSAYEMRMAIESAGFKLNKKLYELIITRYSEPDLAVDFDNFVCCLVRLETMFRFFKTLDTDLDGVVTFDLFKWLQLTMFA
T1 sequence (P04632 1-268 partner): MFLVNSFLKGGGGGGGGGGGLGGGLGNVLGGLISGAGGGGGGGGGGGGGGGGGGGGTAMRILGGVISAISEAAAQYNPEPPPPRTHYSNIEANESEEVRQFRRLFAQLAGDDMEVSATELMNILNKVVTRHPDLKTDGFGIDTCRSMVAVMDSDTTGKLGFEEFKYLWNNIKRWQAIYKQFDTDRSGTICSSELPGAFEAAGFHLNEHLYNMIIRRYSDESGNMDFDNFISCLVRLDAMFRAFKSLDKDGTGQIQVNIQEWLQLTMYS
Method in brief: (§1)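 Calpain activity is measured kinetically with a quenched FRET peptide in 50 mM Tris pH 7.5, 100 mM NaCl, 1 mM DTT, with CaCl2 triggering activation. Rates over 1-5 min are plotted against log inhibitor to obtain IC50 by 4-parameter logistic fitting.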

Human Calpain 2/NS1 = target: T2, Human Calpain 2/NS1 (Homo sapiens, UniProt P17655); test: Calpain inhibition continuous fluorescence (FRET) assay, Human Calpain 2/NS1; type: biochemical; details: read-out: Human Calpain 2/NS1 IC50
T2 sequence (P17655 1-700): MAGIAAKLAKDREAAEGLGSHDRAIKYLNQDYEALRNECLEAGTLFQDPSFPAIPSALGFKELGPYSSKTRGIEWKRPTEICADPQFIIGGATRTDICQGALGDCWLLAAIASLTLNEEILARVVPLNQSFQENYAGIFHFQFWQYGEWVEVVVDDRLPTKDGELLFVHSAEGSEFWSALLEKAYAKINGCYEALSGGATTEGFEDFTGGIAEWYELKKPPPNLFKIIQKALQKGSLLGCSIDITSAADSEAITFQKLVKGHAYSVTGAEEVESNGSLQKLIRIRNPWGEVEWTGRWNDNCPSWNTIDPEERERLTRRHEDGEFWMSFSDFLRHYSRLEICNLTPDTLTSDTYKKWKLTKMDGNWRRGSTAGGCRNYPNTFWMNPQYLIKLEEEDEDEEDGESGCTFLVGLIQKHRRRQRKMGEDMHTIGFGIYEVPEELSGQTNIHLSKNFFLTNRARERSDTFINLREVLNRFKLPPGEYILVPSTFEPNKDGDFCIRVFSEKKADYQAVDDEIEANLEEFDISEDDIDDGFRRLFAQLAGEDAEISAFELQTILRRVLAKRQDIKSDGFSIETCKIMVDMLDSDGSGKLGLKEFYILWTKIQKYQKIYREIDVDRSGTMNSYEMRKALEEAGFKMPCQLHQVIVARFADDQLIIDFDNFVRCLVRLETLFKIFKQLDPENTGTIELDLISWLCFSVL
T2 sequence (P04632 1-268 partner): T1 sequence (P04632 1-268 partner)
Method in brief: as §1

Human Calpain 9/NS1 = target: T3, Human Calpain 9/NS1 (Homo sapiens, UniProt O14815); test: Calpain inhibition continuous fluorescence (FRET) assay, Human Calpain 9/NS1; type: biochemical; details: read-out: Human Calpain 9/NS1 IC50
T3 sequence (O14815 1-690): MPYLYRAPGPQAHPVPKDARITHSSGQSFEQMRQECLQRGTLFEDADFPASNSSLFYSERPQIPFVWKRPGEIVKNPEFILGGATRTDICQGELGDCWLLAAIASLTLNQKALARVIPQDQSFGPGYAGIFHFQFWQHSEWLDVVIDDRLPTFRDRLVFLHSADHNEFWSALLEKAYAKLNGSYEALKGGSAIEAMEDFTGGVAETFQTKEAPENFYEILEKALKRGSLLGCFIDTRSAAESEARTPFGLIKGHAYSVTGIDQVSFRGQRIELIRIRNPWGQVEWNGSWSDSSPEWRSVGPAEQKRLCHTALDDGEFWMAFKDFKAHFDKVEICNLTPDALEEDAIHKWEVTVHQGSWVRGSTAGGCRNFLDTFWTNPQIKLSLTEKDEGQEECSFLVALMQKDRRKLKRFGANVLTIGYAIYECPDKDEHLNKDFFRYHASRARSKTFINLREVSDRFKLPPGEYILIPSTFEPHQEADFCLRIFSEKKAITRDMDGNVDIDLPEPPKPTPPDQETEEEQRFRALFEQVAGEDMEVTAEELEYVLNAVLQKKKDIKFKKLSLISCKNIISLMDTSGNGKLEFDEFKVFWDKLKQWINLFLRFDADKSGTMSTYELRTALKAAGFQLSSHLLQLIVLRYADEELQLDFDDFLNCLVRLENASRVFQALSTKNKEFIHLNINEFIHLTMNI
T3 sequence (P04632 1-268 partner): T1 sequence (P04632 1-268 partner)
Method in brief: as §1

[1] = tested on: Calpain activity in SH-SY5Y cells (SBDP-150); test: SH-SY5Y Spectrin western blot assay (SBDP-150 breakdown product, A23187-induced); type: cell-based; details: Homo sapiens; SH-SY5Y cells, A23187-induced SBDP-150, western blot; read-out: SH-SY5Y Spectrin IC50
[2] = tested on: Calpain activity in SH-SY5Y cells; test: SH-SY5Y + AMC fluorescence assay (Suc-LLVY-AMC substrate); type: cell-based; details: read-out: SH-SY5Y + AMC IC50

| SMILES | IC50 (Human Calpain 1/NS1) | IC50 (Human Calpain 2/NS1) | IC50 (Human Calpain 9/NS1) | IC50 [1] | IC50 [2] |
| --- | --- | --- | --- | --- | --- |
| Cc1cc(C(=O)NC(Cc2ccccc2)C(=O)C(=O)NC2CC2)n(-c2ccccn2)n1 (centres unmarked) [Compound 456, N-(4-(cyclopropylamino)-3,4-dioxo-1-phenylbutan-2-yl)-3-methyl-1-(pyridin-2-yl)-1H-pyrazole-5-carboxamide] | < 3 µM | < 3 µM | < 3 µM | > 25 µM | < 10 µM |
| Cn1cc(C(=O)NC(Cc2ccccc2)C(=O)C(=O)NC2CC2)c(-c2ccccc2)n1 (centres unmarked) [Compound 458, N-(4-(cyclopropylamino)-3,4-dioxo-1-phenylbutan-2-yl)-1-methyl-3-phenyl-1H-pyrazole-4-carboxamide] | < 3 µM | < 3 µM | < 3 µM | 10 to 25 µM | < 10 µM |
| Cc1nc(-c2ccccc2)c(C(=O)NC(Cc2ccccc2)C(=O)C(=O)NC2CC2)o1 (centres unmarked) [Compound 459, N-(4-(cyclopropylamino)-3,4-dioxo-1-phenylbutan-2-yl)-2-methyl-4-phenyloxazole-5-carboxamide] | < 3 µM | < 3 µM | < 3 µM | 10 to 25 µM | < 10 µM |
| CCCCC(NC(=O)c1oc(C)nc1-c1ccccc1)C(=O)C(=O)NC1CC1 (centres unmarked) [Compound 460, N-(1-(cyclopropylamino)-1,2-dioxoheptan-3-yl)-2-methyl-4-phenyloxazole-5-carboxamide] | < 3 µM | < 3 µM | < 3 µM | > 25 µM | > 25 µM |
| O=C(NC1CC1)C(=O)C(Cc1ccccc1)NC(=O)c1cnoc1-c1ccccc1 (centres unmarked) [Compound 461, N-(4-(cyclopropylamino)-3,4-dioxo-1-phenylbutan-2-yl)-5-phenylisoxazole-4-carboxamide] | < 3 µM | < 3 µM | < 3 µM | < 10 µM | > 25 µM |
| CCn1cc(C(=O)NC(Cc2ccccc2)C(=O)C(N)=O)c(-c2ccccc2F)n1 (centres unmarked) [Compound 469, N-(4-amino-3,4-dioxo-1-phenylbutan-2-yl)-1-ethyl-3-(2-fluorophenyl)-1H-pyrazole-4-carboxamide] | < 3 µM | < 3 µM | < 3 µM | 10 to 25 µM | < 10 µM |
| CCn1cc(C(=O)NC(Cc2ccccc2)C(=O)C(N)=O)c(-c2ccc(F)cc2)n1 (centres unmarked) [Compound 471, N-(4-amino-3,4-dioxo-1-phenylbutan-2-yl)-1-ethyl-3-(4-fluorophenyl)-1H-pyrazole-4-carboxamide] | < 3 µM | < 3 µM | < 3 µM | 10 to 25 µM | 10 to 25 µM |
| CC(C)n1cc(C(=O)NC(Cc2ccccc2)C(=O)C(N)=O)c(-c2ccccc2F)n1 (centres unmarked) [Compound 472, N-(4-amino-3,4-dioxo-1-phenylbutan-2-yl)-3-(2-fluorophenyl)-1-isopropyl-1H-pyrazole-4-carboxamide] | < 3 µM | < 3 µM | < 3 µM | 10 to 25 µM | < 10 µM |
| CC(C)n1cc(C(=O)NC(Cc2ccccc2)C(=O)C(N)=O)c(-c2cccc(F)c2)n1 (centres unmarked) [Compound 473, N-(4-amino-3,4-dioxo-1-phenylbutan-2-yl)-3-(3-fluorophenyl)-1-isopropyl-1H-pyrazole-4-carboxamide] | < 3 µM | < 3 µM | < 3 µM | 10 to 25 µM | 10 to 25 µM |
| CC(C)n1cc(C(=O)NC(Cc2ccccc2)C(=O)C(N)=O)c(-c2ccc(F)cc2)n1 (centres unmarked) [Compound 474, N-(4-amino-3,4-dioxo-1-phenylbutan-2-yl)-3-(4-fluorophenyl)-1-isopropyl-1H-pyrazole-4-carboxamide] | < 3 µM | < 3 µM | < 3 µM | 10 to 25 µM | 10 to 25 µM |

More lines, now with the values ahead:

| IC50 (Human Calpain 1/NS1) | IC50 (Human Calpain 2/NS1) | IC50 (Human Calpain 9/NS1) | IC50 [1] | IC50 [2] | SMILES |
| --- | --- | --- | --- | --- | --- |
| < 3 µM | < 3 µM | < 3 µM | < 10 µM | > 25 µM | NC(=O)C(=O)C(CCc1ccccc1)NC(=O)c1nsnc1-c1ccccc1 (centres unmarked) [Compound 463, N-(1-amino-1,2-dioxo-5-phenylpentan-3-yl)-4-phenyl-1,2,5-thiadiazole-3-carboxamide] |
| < 3 µM | < 3 µM | < 3 µM | < 10 µM | < 10 µM | NC(=O)C(=O)C(Cc1ccc(F)cc1)NC(=O)c1nsnc1-c1ccccc1 (centres unmarked) [Compound 464, N-(4-amino-1-(4-fluorophenyl)-3,4-dioxobutan-2-yl)-4-phenyl-1,2,5-thiadiazole-3-carboxamide] |
| < 3 µM | < 3 µM | < 3 µM | < 10 µM | > 25 µM | CC(C)CC(NC(=O)c1nsnc1-c1ccccc1)C(=O)C(N)=O (centres unmarked) [Compound 465, N-(1-amino-5-methyl-1,2-dioxohexan-3-yl)-4-phenyl-1,2,5-thiadiazole-3-carboxamide] |
| < 3 µM | < 3 µM | < 3 µM | < 10 µM | > 25 µM | Cc1cc(C)cc(CC(NC(=O)c2nsnc2-c2ccccc2)C(=O)C(N)=O)c1 (centres unmarked) [Compound 466, N-(4-amino-1-(3,5-dimethylphenyl)-3,4-dioxobutan-2-yl)-4-phenyl-1,2,5-thiadiazole-3-carboxamide] |
| < 3 µM | < 3 µM | < 3 µM | < 10 µM | > 25 µM | CCCCC(NC(=O)c1nsnc1-c1ccccc1)C(=O)C(N)=O (centres unmarked) [Compound 467, N-(1-amino-1,2-dioxoheptan-3-yl)-4-phenyl-1,2,5-thiadiazole-3-carboxamide] |
| < 3 µM | < 3 µM | < 3 µM | < 10 µM | > 25 µM | CC(NC(=O)c1nsnc1-c1ccccc1)C(=O)C(N)=O (centres unmarked) [Compound 468, N-(4-amino-3,4-dioxobutan-2-yl)-4-phenyl-1,2,5-thiadiazole-3-carboxamide] |
